Read-outs that look alike come from different tables or passages of the source. Where no end group is shown, it is not given here.
Tests used:
Format in all cases: cell-based
[1] = test system: Staphylococcus aureus; details: 18 h
Experimental: (§1) Bacteria (2×10E6 CFU/ml) were suspended in MHB+0.9% NaCl and were mixed 1:1 (vol/vol) with peptides dissolved in the same medium in various concentrations (final conc. 0-10 μM) and added to Bioscreen C analyzer plates (Oy Growth Curves Ab Ltd., Helsinki, Finland) and incubated for 18 h at 37° C. while shaking (200 rpm) in a Bioscreen C analyzer (Oy Growth Curves Ab Ltd). The OD (600 nm) was measured every 15 min. Minimal Inhibitory Concentrations (MIC values) were assessed for each peptide.

[2] = test system: Pseudomonas aeruginosa; details: 18 h
Experimental: as §1

[3] = test system: primary human nasal epithelial cells; experiment: Toxicity measurement (WST-1 conversion); design: Toxicity: key to the marks not given beside the values
Experimental: The cytotoxic effect of all peptides was determined as previously described (2) using primary human nasal epithelial cells, obtained by nasal brushing of healthy individuals.
Cells were grown to confluence in 96-well plates in Bronchial Epithelial Cell Growth Medium (BEPC, Lonza) at 37° C. and 5% CO2. Peptides were diluted in the same medium to a final concentration of 5 μM and applied to the washed (PBS, twice) cells and incubated for 3 hours or 24 hours at 37° C. After incubation, the medium was removed, cells were washed twice (PBS) and fresh BEPC containing 10% (v/v) cell proliferation reagent WST-1 (Roche) was added to each well.
Conversion of WST-1 is indicative for cell viability and reduced conversion by cells is a measure for cytotoxic effects exerted by peptides. After incubation for 30 minutes at 37° C. the absorbance of each well was measured at 450 nm and 650 nm (reference wavelength). Controls included cells exposed to peptide-free medium (set to 100% WST-1 conversion) and wells without cells (background). Results are based upon 5 individual experiments and defined as follows: “0”, no toxicity; “+”, weakly toxic; “++”, moderately toxic; “+++”, toxic; “++++”, very toxic.

For “RRWVQRWIRRWRKVAAARRWVQRWIRRWRPKV-NH2 [SEQ ID NO: 13]”, the “Bioscreen MIC values Staphylococcus aureus” value [1] was 1.25 µM and the “Bioscreen MIC values Pseudomonas aeruginosa” value [2] was 1.25 µM.

For “APKAMRRWVQRWIRRWRPRLQKKGI-NH2 [SEQ ID NO: 19]”, the “Bioscreen MIC values Staphylococcus aureus” value [1] was over 10 µM and the “Bioscreen MIC values Pseudomonas aeruginosa” value [2] was 5 µM.

For `CC[C@H](C)[C@H](NC(=O)[C@H](CCCCN)NC(=O)[C@H](CCC(=O)O)NC(=O)[C@H](CCCCN)NC(=O)[C@H](CO)NC(=O)[C@H](CCCCN)NC(=O)[C@H](CCCNC(=N)N)NC(=O)[C@H](Cc1ccccc1)NC(=O)[C@H](Cc1ccccc1)NC(=O)[C@H](CC(=O)O)NC(=O)CNC(=O)[C@H](CC(C)C)NC(=O)[C@@H](N)CC(C)C)C(=O)NCC(=O)N[C@@H](CCCCN)C(=O)N[C@@H](CCC(=O)O)C(=O)N[C@@H](Cc1ccccc1)C(=O)N[C@@H](CCCCN)C(=O)N[C@@H](CCCNC(=N)N)C(=O)N[C@H](C(=O)N[C@H](C(=O)N[C@@H](CCC(N)=O)C(=O)N[C@@H](CCCNC(=N)N)C(=O)N[C@H](C(=O)N[C@@H](CCCCN)C(=O)N[C@@H](CC(=O)O)C(=O)N[C@@H](Cc1ccccc1)C(=O)N[C@@H](CC(C)C)C(=O)N[C@@H](CCCNC(=N)N)C(=O)N[C@@H](CC(N)=O)C(=O)N[C@@H](CC(C)C)C(=O)N[C@H](C(=O)N1CCC[C@H]1C(=O)N[C@@H](CCCNC(=N)N)C(=O)N[C@H](C(=O)N[C@@H](CCC(=O)O)C(=O)N[C@@H](CO)C(N)=O)[C@@H](C)O)C(C)C)[C@@H](C)CC)C(C)C)[C@@H](C)CC` [SEQ ID NO: 1], the Toxicity ([3]; peptide 5 μM, 3 hours or 24 hours, WST-1 conversion) was “++” and the “toxicity, in words” value ([3]; primary human nasal epithelial cells) was “more toxic”.

“APKAMRRWVQRWIRRWRPKVLLHYPSQKF-NH2 [SEQ ID NO: 23]” was tested, and the “Bioscreen MIC values Staphylococcus aureus” value [1] was over 10 µM and the “Bioscreen MIC values Pseudomonas aeruginosa” value [2] was 2.5 µM.

For “RRWVRRWIRRWRPKV-NH2 [SEQ ID NO: 25, RRWVRRWIRRWRPKV]”, the “Bioscreen MIC values Staphylococcus aureus” value [1] was over 10 µM and the “Bioscreen MIC values Pseudomonas aeruginosa” value [2] was 5 µM.

With “RRWVQRWIRRWRPKVAAARRWV-NH2 [SEQ ID NO: 10]” the “Bioscreen MIC values Staphylococcus aureus” value [1] was 10 µM and the “Bioscreen MIC values Pseudomonas aeruginosa” value [2] was 1.25 µM.

“RRWVQRWIRRWRPKW-NH2 [SEQ ID NO: 9, RRWVQRWIRRWRPKW]” was tested, and the “Bioscreen MIC values Staphylococcus aureus” value [1] was 10 µM and the “Bioscreen MIC values Pseudomonas aeruginosa” value [2] was 5 µM.

“RFGRFLRKIRRFRPKVTITIQGSARF-NH2 [SEQ ID NO: 2, reference compound]” was tested, and the “toxicity, in words” value [3] was “extremely toxic”, the “Bioscreen MIC values Staphylococcus aureus” value [1] was 1.25 µM and the “Bioscreen MIC values Pseudomonas aeruginosa” value [2] was 1.25 µM.

With “RRWVQRWIRRWRPK-NH2 [SEQ ID NO: 8, RRWVQRWIRRWRPK]” the “Bioscreen MIC values Staphylococcus aureus” value [1] was over 10 µM and the “Bioscreen MIC values Pseudomonas aeruginosa” value [2] was 10 µM.

With “RRWVQRWIRRWRKWV-NH2 [SEQ ID NO: 7, RRWVQRWIRRWRKWV]” the “Bioscreen MIC values Staphylococcus aureus” value [1] was 2.5 µM and the “Bioscreen MIC values Pseudomonas aeruginosa” value [2] was 1.25 µM.

For “RRWVQRWIRRWRPWV-NH2 [SEQ ID NO: 6, RRWVQRWIRRWRPWV]”, the “Bioscreen MIC values Staphylococcus aureus” value [1] was 10 µM and the “Bioscreen MIC values Pseudomonas aeruginosa” value [2] was 2.5 µM.

“APKAMWVQRWIRRWRPLQKKGI-NH2 [SEQ ID NO: 27]” was tested, and the “toxicity, in words” value [3] was “weakly toxic”, the “Bioscreen MIC values Staphylococcus aureus” value [1] was over 10 µM and the “Bioscreen MIC values Pseudomonas aeruginosa” value [2] was over 10 µM.

“APKAMRRWVQRWIRRWRPLQKKGI-NH2 [SEQ ID NO: 20]” was tested, and the “Bioscreen MIC values Staphylococcus aureus” value [1] was over 10 µM and the “Bioscreen MIC values Pseudomonas aeruginosa” value [2] was 10 µM.

For “RRWVQRWIRRWRPKVLQKKGI-NH2 [SEQ ID NO: 14]”, the “Bioscreen MIC values Staphylococcus aureus” value [1] was over 10 µM and the “Bioscreen MIC values Pseudomonas aeruginosa” value [2] was 10 µM.

With “RRWVQRWIRRWRPKLQKKGI-NH2 [SEQ ID NO: 16]” the “Bioscreen MIC values Staphylococcus aureus” value [1] was over 10 µM and the “Bioscreen MIC values Pseudomonas aeruginosa” value [2] was 10 µM.

For “APKAMRRWVQRWIRRWRPKVFQVTGSSA-NH2 [SEQ ID NO: 22]”, the “Bioscreen MIC values Staphylococcus aureus” value [1] was over 10 µM and the “Bioscreen MIC values Pseudomonas aeruginosa” value [2] was 10 µM.

In the case of “APKAMRRWVQRWIRRWRPKVLQKNNYL-NH2 [SEQ ID NO: 21]”, the “Bioscreen MIC values Staphylococcus aureus” value [1] is reported as over 10 µM and the “Bioscreen MIC values Pseudomonas aeruginosa” value [2] is reported as 2.5 µM.

“APKAMRRWVQRWIRRWRPKVLQKKGI-NH2 [SEQ ID NO: 18]” was tested, and the “Bioscreen MIC values Staphylococcus aureus” value [1] was over 10 µM and the “Bioscreen MIC values Pseudomonas aeruginosa” value [2] was 5 µM.

“APKAMRWVQRWIRRWRPKLQKKGI-NH2 [SEQ ID NO: 26]” was tested, and the “Bioscreen MIC values Staphylococcus aureus” value [1] was over 10 µM and the “Bioscreen MIC values Pseudomonas aeruginosa” value [2] was 10 µM.

With “RRWVQRWIRRWRPKVAAARRWVQRWIRRWRPKV-NH2 [SEQ ID NO: 12]” the “Bioscreen MIC values Staphylococcus aureus” value [1] was 1.25 µM and the “Bioscreen MIC values Pseudomonas aeruginosa” value [2] was 1.25 µM.

In the case of “APKAMRRWVQRWIRRWRPRV-NH2 [SEQ ID NO: 17]”, the “Bioscreen MIC values Staphylococcus aureus” value [1] is reported as over 10 µM and the “Bioscreen MIC values Pseudomonas aeruginosa” value [2] is reported as 5 µM.

In the case of “RRWVQRWIRRWRPKRIVQRIKDFLRNLV-NH2 [SEQ ID NO: 11]”, the “Bioscreen MIC values Staphylococcus aureus” value [1] is reported as 2.5 µM and the “Bioscreen MIC values Pseudomonas aeruginosa” value [2] is reported as 1.25 µM.

Reference: US11130781B2, “Antimicrobial peptides and their use” (UNIVERSITEIT UTRECHT HOLDING B.V., priority 2017, dated 2021)
